Assay results as given in paper PMC6972728, “Anthranilamide-based Short Peptides Self-Assembled Hydrogels as Antibacterial Agents” (Scientific Reports, 2020).
Square brackets hold non-standard residues; d marks the D form. Peptide text beside a SMILES is read from it. * marks the point of attachment. 2Abz = Nc1ccccc1C(=O)O; Bz = O=C(c1ccccc1)*

Tests used:
[1] = system: S. aureus; settings: cited from earlier work
Protocol: With a complete understanding of the hydrogel ultrastructure now in-hand, the antibacterial activity of N-acetyl 1, N-benzoyl 2 and N-naphthoyl 3 was assessed, in order to evaluate the effect of increased hydrophobicity on antibacterial activity. Further, the stiffest (BA 9) and softest (methyl 6) of the remaining gelators were tested to discern the relationship of hydrogel stiffness to antimicrobial activity. Staphylococcus aureus, the most common causative organism for skin and soft tissue infections, was chosen as the bacterial strain to assess the hydrogels antibacterial activity. Thes ...

[2] = system: HEK293T cells; assay: Contact cytotoxicity of hydrogels, Alamar Blue colorimetric assay; format: cell-based; settings: hydrogels at 0.25, 0.5 and 1% (w/v), cells seeded on hydrogel, 24 h, repeated at least three times
Protocol: With this in mind, the cytotoxicity of lead candidates N-benzoyl 2, N-naphthoyl 3, and BA 9 (para) from the antibacterial studies were examined against HEK293T cells, as a robust mammalian cell model. As the antibacterial activity of the 2, 3 and 9 was evaluated in the gel phase, contact cytotoxicity of hydrogels at concentrations of 0.25, 0.5, and 1% (w/v) was examined.
Similar to previously reported method, cytotoxicity measurement was performed using an Alamar Blue colorimetric assay on HEK293T cells. HEK293T cells were passaged using standard cell culture procedures. Cells were detached with trypsin and centrifuged (1000 rpm for 3 min). After supernatant was removed, the cells were re-suspended in Dulbecco’s Modified Eagle Medium (DMEM) at a concentration of 60,000 cells/mL. Cells were seeded onto hydrogels at a concentration of 6,000 cells/well. Hydrogels were prepared as described above and 100 µL cast into the wells of a 96 well plate in triplicate. After incubating overnight, 100 µL media was added to the set hydrogels and incubated overnight. The following day, excess media was aspirated and cells seeded atop the hydrogels as above. After incubation for 24 hours, 10 µL Alamar Blue was added to each well, followed by further incubation for another 4 hours. […] BioRad Benchmark plate reader was used to measure the absorbance at 570 nm and 596 nm. […]

[3] = Temperature dependent CD spectroscopy (thermal denaturation); format: physicochemical; settings: temperature increased from 25 °C to 60 °C; diluted hydrogel
Protocol: In addition, CD spectroscopy was also used as a tool to investigate gradual thermal denaturation of anthranilamide-based short peptides.
The anthranilamide-based hydrogels were prepared at 0.8% (w/v) and were diluted 10 times before being transferred into a 0.5 mm path length cuvette. Meanwhile, for the concentration dependence, the hydrogel made from N-benzoyl 2 at 0.8% (w/v) was diluted to make up concentrations ranging from 0.058 mM – 0.470 mM before being transferred into a 0.5 mm path length cuvette.
CD spectrum were obtained using a ChirascanPlus CD spectrometer (Applied Photophysics, UK) scanning wavelengths of 180–500 nm with a bandwidth of 1 nm, 0.6 s per point, and step of 1 nm[22]. The outcome of three experiments were then averaged and plotted into a single plot value. The high tension (HT) value of each experiment was maintained to be below 600 mV (Fig. S17).

[4] = not given; remark: listed apart in the source
[5] = Hydrogel formation, critical gel concentration and gelation time by vial inversion test; format: physicochemical
Description: Several triggers such as physical stimuli, pH switch, solvent switch, or a combination of these, were employed to assess the self-assembly of compounds 1–11 in water. Initially, hydrogel formation of compounds 1–11, at 1% (w/v), was investigated using a combination of pH switch and temperature switch. The compounds were heated in dilute sodium hydroxide (NaOH) in order to deprotonate the carboxylic acid group at the C-terminus of the short peptides.
Compared to a mineral acid, GdL promotes the formation of a homogenous hydrogel due to its slow hydrolysis and fast dissolution rate in water[39],[40].
In addition, the effect of salt which can induce gelation in basic peptide solutions[41], due to high ionic was also investigated for peptides 1–11.
In a final attempt to induce gelation in peptides 4, 7 and 11, a solvent switch method using dimethyl sulfoxide (DMSO), methanol, or ethanol as co-solvent was employed[42]–[47]. […] Given that these hydrogels were designed with antibacterial applications in mind, due to the potential toxicity concerns arising from the use of organic co-solvents, further characterisation of peptides 4, 7 and 11 was not carried out.
The critical gel concentration (CGC) represents the minimum amount of the anthranilamide-based short peptide required to form a hydrogel. The CGC of anthranilamide-based short peptides were qualitatively assessed by varying the short peptide concentrations and conducting vial inversion test[48]–[50]. […] Here, gelation time represents the time required for these short peptides, at 1% (w/v), to form self-supporting hydrogels as assessed through the vial inversion test.
To a pre-weighed compound in a glass vial, 1 M NaOH (2–8 molar equiv.) was added followed by addition of Mili-Q water. The suspension was then heated and vortexed vigorously for 15 minutes to completely dissolve the compound. In the case of N-acetyl 1, N-benzoyl 2, N-naphthoyl 3, fluoro 5 and methyl 6, these clear solutions were left to cool to room temperature for 1–30 minutes. GdL (2–3 equiv.) was added to a solution of compounds 7–11 in NaOH. […]

`CC(=O)Nc1ccccc1C(=O)N[C@@H](Cc1ccccc1)C(=O)N[C@@H](Cc1ccccc1)C(=O)O` (Ac-[2Abz]-Phe-Phe-OH) showed an amide I peak (disordered coil) of 1650 cm⁻¹.

For `[Na+].[OH-]` [NaOH, sodium hydroxide], the MIC [1] is given as 7500 µg/mL.

In the case of `O=C(Nc1ccccc1C(=O)N[C@@H](Cc1ccccc1)C(=O)N[C@@H](Cc1ccccc1)C(=O)O)c1ccccc1` [compound 2] ({Bz-2Abz}-Phe-Phe-OH), the “Cytotoxicity towards HEK cells” value [2] is reported as “moderate cytotoxicity”, the “Thermal stability of ß-sheet secondary structure (CD)” value [3] is reported as “no significant conformational changes” and the Gʹ (stiffness) [4] is reported as 16.9 kPa.

In the case of `O=C(Nc1ccccc1C(=O)N[C@@H](Cc1ccccc1)C(=O)N[C@@H](Cc1ccccc1)C(=O)O)c1ccc2ccccc2c1` [compound 3], the “Cytotoxicity towards HEK cells” value [2] is reported as “poor cell viability” and the Gʹ (stiffness) [4] is reported as 5.7 kPa.

With `O=C(N[C@@H](Cc1ccccc1)C(=O)N[C@@H](Cc1ccccc1)C(=O)O)c1ccccc1NS(=O)(=O)c1cccc2ccccc12` [compound 4] the Hydrogel formation outcome ([5]; 1% (w/v), heated in dilute NaOH, cooled to room temperature (pH switch and temperature switch), up to 48 hours) was “remained as clear solutions”, the Hydrogel formation outcome ([5]; 3 equivalents of GdL added to basic solution) was “white precipitate” and the Hydrogel formation outcome ([5]; solvent switch, DMSO: water at 1% w/v) was “gels were observed only for the first 5 minutes”.
